# Reference: PubChem BioAssay (NCI)
#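 Results reflect a 48-hour exposure of cells in 96-well plates to compound at five concentrations. At the TGI there is no net growth.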
# Legend:
# Assay in all cases: inhibition of tumour cell growth, NCI panel, 48 h
# 786-0 renal = tested on: 786-0 renal
# A498 renal = tested on: A498 renal
# A549 NSCLC = tested on: A549 NSCLC
# HCC-2998 colon = tested on: HCC-2998 colon
# HCT-116 colon = tested on: HCT-116 colon
# HOP-62 NSCLC = tested on: HOP-62 NSCLC
# K-562 leukemia = tested on: K-562 leukemia
# MOLT-4 leukemia = tested on: MOLT-4 leukemia
# NCI-H460 lung = tested on: NCI-H460 lung
# OVCAR-4 ovarian = tested on: OVCAR-4 ovarian
# RPMI-8226 leukemia = tested on: RPMI-8226 leukemia
# SF-539 CNS = tested on: SF-539 CNS
# SK-MEL-28 melanoma = tested on: SK-MEL-28 melanoma
# SN12C renal = tested on: SN12C renal
# SNB-19 CNS = tested on: SNB-19 CNS
# U251 CNS = tested on: U251 CNS
# HOP-92 NSCLC = tested on: HOP-92 NSCLC
Compound,TGI (786-0 renal) [µM],TGI (A498 renal) [µM],TGI (A549 NSCLC) [µM],TGI (HCC-2998 colon) [µM],TGI (HCT-116 colon) [µM],TGI (HOP-62 NSCLC) [µM],TGI (K-562 leukemia) [µM],TGI (MOLT-4 leukemia) [µM],TGI (NCI-H460 lung) [µM],TGI (OVCAR-4 ovarian) [µM],TGI (RPMI-8226 leukemia) [µM],TGI (SF-539 CNS) [µM],TGI (SK-MEL-28 melanoma) [µM],TGI (SN12C renal) [µM],TGI (SNB-19 CNS) [µM],TGI (U251 CNS) [µM],TGI (HOP-92 NSCLC) [µM]
C=C(C)[C@@H]1CC[C@@H](C)[C@](O)([C@@H]2C[C@@H]([C@H](COC(=O)c3ccccc3)OC(=O)c3ccccc3)OC2=O)C1,> 100,> 100,> 100,> 100,> 100,> 100,> 100,> 100,> 100,> 100,> 100,> 100,> 100,> 100,> 100,> 100,–
NC12CC3CC(C1)CC(Cl)(C3)C2,> 100,> 100,> 100,> 100,> 100,> 100,> 100,> 100,> 100,–,> 100,> 100,> 100,–,–,> 100,> 100
COc1ccc(/C=C2\N=C(c3ccccc3)N(Nc3nnc(NN4C(=O)/C(=C/c5ccc(OC)cc5)N=C4c4ccccc4)c4ccccc34)C2=O)cc1,> 100,> 100,> 100,–,> 100,> 100,> 100,> 100,> 100,> 100,> 100,> 100,> 100,> 100,> 100,> 100,> 100
CCOC(=O)c1nc2ccc(Cl)cc2c2c1CCO2,> 100,> 100,> 100,> 100,> 100,> 100,> 100,> 100,> 100,> 100,–,> 100,> 100,> 100,> 100,> 100,–
CO/C(=N\N=C\c1ccc(OC)cc1OC)c1ccncc1,> 10,> 10,> 10,> 10,> 10,> 10,> 10,> 10,> 10,–,> 10,> 10,> 10,> 10,> 10,> 10,–
COC(=O)[C@H]1C=C[C@@H](C)n2c(=O)c3ccccc3c(=O)n21,> 100,> 100,> 100,> 100,> 100,> 100,> 100,> 100,> 100,> 100,> 100,> 100,> 100,> 100,> 100,> 100,> 100
NC(=O)c1csc(CCCCCCc2nc(C(N)=O)cs2)n1,> 73.7,> 100,> 100,> 100,> 100,> 100,> 62.8,> 100,> 100,> 100,> 71.4,> 100,> 100,> 100,> 100,> 65.1,> 100
CC(=O)OC1OC2C(NC(=O)OC(C)(C)C)C1CC2(OCc1ccccc1)OCc1ccccc1 (stereo not drawn),56.8,> 82.9,> 100,40.7,31.6,76.3,> 94.8,62.9,> 100,–,43.3,33.8,57.2,75.2,> 100,32.4,30.3
Cn1c(=O)c2c(nc(C[N+]3([O-])CCOCC3)n2C)n(C)c1=O,> 100,–,> 100,> 100,> 100,> 100,> 100,> 100,> 100,–,> 100,> 100,> 100,> 100,> 100,> 100,> 100
COc1cccc(-c2cccc(SC)n2)n1,88.3,–,> 100,75.5,> 100,> 100,> 100,> 100,> 100,> 100,78.1,> 100,> 100,> 100,> 100,> 100,67.4
O=C1Nc2ccccc2[C@]12C[C@H]2c1ccccn1,> 100,> 100,> 100,> 100,> 100,> 100,> 100,> 100,> 100,> 100,> 100,> 100,> 100,> 100,> 100,> 100,> 100
Nc1nc(N)nc(-c2cnccn2)n1,> 100,> 100,> 100,> 100,> 100,> 100,> 100,> 100,> 100,–,–,> 100,> 100,> 100,> 100,> 100,> 100
CCOC(OCC)c1ccc(/C=C/c2cc(OC)c(OC)c(OC)c2)cc1,60.1,45.4,95.2,–,30.7,56.6,39.8,–,38.1,68.1,63,29.8,56.7,36.9,> 100,32.2,64.7
O=C1C(Cl)C(c2ccc(Cl)cc2)N1n1cnc2ccccc2c1=O (stereo not drawn),> 100,–,> 100,> 100,> 100,> 100,> 100,> 100,> 100,> 100,> 100,–,> 100,> 100,> 100,> 100,–
COc1ccc(-c2onc(-c3c(C)cc(C)cc3C)c2C2=NCCCN2)cc1,> 100,–,> 100,> 100,> 100,> 100,> 100,> 100,> 100,> 100,86.5,53.7,> 100,> 100,> 100,57.9,–
NC(=O)C(=CN1C(=O)CC(=O)NC1=S)C(N)=O,> 100,> 100,> 100,> 100,> 100,> 100,–,> 100,> 100,> 100,–,> 100,> 100,> 100,> 100,> 100,> 100
O=C(O)c1cc(-c2ccccc2O)nc2ccccc12,> 100,> 100,> 100,> 100,> 100,> 100,> 100,> 100,> 100,> 100,> 100,> 100,> 100,> 100,> 100,> 100,–
COC1=CC(C2c3cc4c(cc3[C@@H](Nc3ccc([N+](=O)[O-])cc3)C3COC(=O)[C@H]23)OCO4)=CC(=O)C1=O (stereo partly drawn),4.86,6.23,10.6,14.5,27.5,2.47,> 96.6,10.5,7.08,> 100,> 100,6.05,> 94.8,7.59,> 86.5,4.75,> 53
NC(=O)C12C3C4C1C1C2C3C41C(N)=O (stereo not drawn),> 100,> 100,> 100,> 100,> 100,> 100,> 100,> 100,> 100,> 100,> 100,> 100,> 100,> 100,> 100,> 100,> 100
CC(=O)c1c(O)ccc2c1CC(CC=O)O2 (stereo not drawn),> 100,–,> 100,> 100,41.4,> 100,> 100,> 100,> 100,> 100,> 100,> 100,> 100,> 100,> 100,> 100,> 100
CN(C)CCCSc1c2ccccc2nc2cc(NCC(=O)Nc3ccccc3-c3ccccc3NC(=O)CNc3ccc4c(SCCCN(C)C)c5ccccc5nc4c3)ccc12,> 100,> 100,> 100,> 100,> 100,> 100,> 100,> 100,> 100,> 100,> 100,> 100,> 100,> 100,> 100,> 100,> 100
Cc1nccc2c1cnc1ccnn12,> 100,> 100,> 100,> 100,> 100,> 100,> 100,> 100,> 100,> 100,> 100,> 100,> 100,> 100,> 100,> 100,> 100
COc1ccc(Nc2nc(N)c(C(=O)c3ccc(OC)cc3)s2)cc1,> 41.9,> 64.7,> 44.5,> 29.7,> 28.9,–,> 35.8,–,> 54.8,> 100,0.659,23,> 68.6,> 64.5,> 49.5,17.2,> 86.5
